Test results taken from ChEMBL document CHEMBL2321704, “Cis-amide isosteric replacement in thienobenzoxepin inhibitors of PI3-kinase” (Bioorg Med Chem Lett, 2013).
In brackets after ≈: the same amount, converted by molar mass.

Assays:
[1] = Kinetic solubility of the compound by dry down method; assay type: physicochemical; conditions: read-out: Kinetic_solubility
[2] = target: T1, Phosphatidylinositol 4,5-bisphosphate 3-kinase catalytic subunit alpha isoform (Homo sapiens, UniProt P42336)
Description: Inhibition of PI3Kalpha-mediated AKT Ser 473 phosphorylation in human PC3 cells

[3] = Clearance in rat liver microsomes; assay type: ADME, Microsome
[4] = Clearance in human liver microsomes; assay type: ADME, Microsome
[5] = Plasma clearance in Sprague-Dawley rat at 1 mg/kg, iv; assay type: ADME, organism-based; design: dose 1 mg/kg, route intravenous
[6] = target: T1, Phosphatidylinositol 4,5-bisphosphate 3-kinase catalytic subunit alpha isoform; assay: Inhibition of recombinant PI3Kalpha (unknown origin)-mediated 3,4,5-inositoltriphosphate formation after 30 mins by TAMRA-PIP3-based competitive fluorescence polarization assay
[7] = system: MCF7; assay: Antiproliferative activity against human MCF7 cells expressing neo-HER2 after 3 days by CellTiter-Glo assay; assay type: functional, cell-based; conditions: MCF7, 72 h
[8] = Apparent permeability from apical to basal side of MDCK cells; assay type: ADME, cell-based, Canis lupus familiaris; conditions: dog
[9] = system: PC-3; assay: Antiproliferative activity against human PC3 cells after 4 days by CellTiter-Glo assay; assay type: functional, cell-based; conditions: PC-3, 96 h
[10] = system: Mus musculus; assay: Unbound AUC in nude mouse at 25 mg/kg; assay type: ADME, organism-based; design: dose 25 mg/kg; conditions: in vivo
[11] = system: Mus musculus; assay: Unbound AUC in nude mouse at 50 mg/kg; assay type: ADME, organism-based; design: dose 50 mg/kg; conditions: in vivo
[12] = Thermodynamic solubility of the compound at pH 7.4; assay type: physicochemical; conditions: buffer, read-out: Therm_solubility
[13] = system: Mus musculus; assay: Unbound AUC in nude mouse at 100 mg/kg; assay type: ADME, organism-based; design: dose 100 mg/kg; conditions: in vivo

T1 sequence (P42336 whole entry, canonical isoform): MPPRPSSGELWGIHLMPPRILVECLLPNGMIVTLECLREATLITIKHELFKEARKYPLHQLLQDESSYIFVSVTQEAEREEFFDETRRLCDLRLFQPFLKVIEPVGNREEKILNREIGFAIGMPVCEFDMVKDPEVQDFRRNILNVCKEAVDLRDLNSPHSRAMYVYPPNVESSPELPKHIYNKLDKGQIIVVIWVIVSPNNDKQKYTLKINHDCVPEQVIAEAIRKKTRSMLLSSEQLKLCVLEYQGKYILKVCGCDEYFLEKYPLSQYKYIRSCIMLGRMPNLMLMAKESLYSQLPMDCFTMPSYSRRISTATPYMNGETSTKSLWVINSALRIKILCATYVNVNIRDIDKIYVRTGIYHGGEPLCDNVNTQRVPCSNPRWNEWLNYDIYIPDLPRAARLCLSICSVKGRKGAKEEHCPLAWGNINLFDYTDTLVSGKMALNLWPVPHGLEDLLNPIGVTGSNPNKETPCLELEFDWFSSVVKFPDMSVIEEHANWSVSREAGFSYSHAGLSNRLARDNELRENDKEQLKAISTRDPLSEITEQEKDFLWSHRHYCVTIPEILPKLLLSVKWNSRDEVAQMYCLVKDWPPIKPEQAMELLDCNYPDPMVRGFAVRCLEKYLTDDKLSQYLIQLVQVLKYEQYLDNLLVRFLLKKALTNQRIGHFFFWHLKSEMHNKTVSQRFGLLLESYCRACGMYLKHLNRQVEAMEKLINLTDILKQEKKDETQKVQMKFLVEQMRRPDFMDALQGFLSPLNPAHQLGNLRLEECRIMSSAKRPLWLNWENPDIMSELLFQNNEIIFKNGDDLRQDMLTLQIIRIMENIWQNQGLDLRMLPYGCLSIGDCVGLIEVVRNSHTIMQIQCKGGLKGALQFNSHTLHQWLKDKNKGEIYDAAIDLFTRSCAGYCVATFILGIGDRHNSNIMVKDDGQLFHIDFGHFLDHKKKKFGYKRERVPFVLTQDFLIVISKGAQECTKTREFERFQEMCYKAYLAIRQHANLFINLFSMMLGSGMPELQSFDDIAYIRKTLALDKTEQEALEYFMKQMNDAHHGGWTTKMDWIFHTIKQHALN

Row | Compound | solubility kinetic [1] [µM] | IC50 [2] [µM] | CLhep predicted [3] [mL/min/kg] | CLhep predicted [4] [mL/min/kg] | IC50 [6] [µM] | also measured
1 | CC(C)Cn1ncnc1-c1cc2c(s1)-c1ccc(C(N)=O)cc1OCC2 | > 200 | 0.279 | 49 | 19 | 0.004 | clearance [5]: 112 mL/min/kg
2 | CC(C)(O)Cn1ncnc1-c1cc2c(s1)-c1ccc(C(N)=O)cc1OCC2 | > 200 | 0.481 | 15 | 11 | 0.004 | clearance [5]: 57 mL/min/kg
3 | Clc1ccccc1-c1ocnc1-c1cc2c(s1)-c1ncccc1OCC2 | 41 (≈ 15.6 µg/mL) | 0.25 | – | – | 0.012 | –
4 | NC(=O)c1ccc2c(c1)OCCc1cc(-c3ncnn3C3CCC3)sc1-2 | 37 (≈ 13.6 µg/mL) | 0.563 | 44 | 19 | 0.008 | clearance [5]: 61 mL/min/kg
5 | NC(=O)c1ccc2c(c1)OCCc1cc(-c3n[nH]c(=O)n3-c3ccccc3Cl)sc1-2 | 15 (≈ 6.58 µg/mL) | 0.02 | – | – | < 0.0005 | –
6 | Nc1nc(-c2cc3c(s2)-c2ccccc2OCC3)c(-c2ccccc2Cl)s1 | 4 (≈ 1.64 µg/mL) | 0.023 | – | – | < 0.0005 | –
7 | CC(=O)Nc1nc(-c2cc3c(s2)-c2ncccc2OCC3)c(-c2ccccc2Cl)[nH]1 | 41 (≈ 17.9 µg/mL) | 0.036 | – | – | < 0.0014 | –
8 | NC(=O)c1ccc2c(c1)OCCc1cc(-c3ncnn3CC(F)(F)F)sc1-2 | > 200 | 0.487 | 12 | 7 | 0.007 | clearance [5]: 11 mL/min/kg
9 | Clc1ccccc1-n1cnnc1-c1cc2c(s1)-c1ccccc1OCC2 | 15 (≈ 5.7 µg/mL) | 0.074 | – | – | 0.0073 | –
10 | NC(=O)c1ccc2c(c1)OCCc1cc(-c3ncnn3CCO)sc1-2 | > 200 | > 1 | 25 | 10 | 0.015 | –
11 | NC(=O)c1ccc2c(c1)OCCc1cc(-c3nnnn3-c3ccccc3Cl)sc1-2 | > 200 | 0.042 | – | – | < 0.0005 | –
12 | CN(C)CCn1ncnc1-c1cc2c(s1)-c1ccc(C(N)=O)cc1OCC2 | 128 (≈ 49.1 µg/mL) | – | 38 | 14 | 0.142 | –
13 | NC(=O)c1ccc2c(c1)OCCc1cc(-c3n[nH]cc3-c3ccccc3Cl)sc1-2 | 12 (≈ 5.06 µg/mL) | 0.028 | – | – | 0.001 | –
14 | CC(C)n1ncnc1-c1cc2c(s1)-c1ccc(C(N)=O)cc1OCC2 | > 200 | – | 29 | 10 | – | Papp A→B [8]: 20 ×10⁻⁶ cm/s; fAUC [10]: 5.7 µM·h; fAUC [11]: 13.6 µM·h; solubility thermodynamic [12]: 53 µg/mL (≈ 150 µM); clearance [5]: 13 mL/min/kg; fAUC [13]: 17.8 µM·h
15 | NC(=O)c1ccc2c(c1)OCCc1cc(-c3nncn3-c3ccccc3Cl)sc1-2 | 9 (≈ 3.81 µg/mL) | 0.06 | – | – | < 0.0005 | –

Now from value to compound, other results behind:

Row | solubility kinetic [1] [µM] | IC50 [2] [µM] | CLhep predicted [3] [mL/min/kg] | CLhep predicted [4] [mL/min/kg] | IC50 [6] [µM] | Compound | also measured
16 | – | – | – | – | 0.885 | CN(C(=O)c1cc2c(s1)-c1ccccc1OCC2)C1CCCCC1 | –
17 | 4.1 (≈ 1.56 µg/mL) | 0.11 | – | – | 0.0012 | Fc1ccc(-n2ncnc2-c2cc3c(s2)-c2ccccc2OCC3)c(F)c1 | –
18 | – | 0.1 | 43 | 18 | 0.0015 | CN(C(=O)c1cc2c(s1)-c1ccc(C(N)=O)cc1OCC2)c1ccccc1Cl | IC50 [7]: > 4.1 µM; Papp A→B [8]: 2.1 ×10⁻⁶ cm/s; IC50 [9]: > 3.5 µM
19 | 41 (≈ 15.2 µg/mL) | > 1 | – | – | 0.007 | CN(C(=O)c1cc2c(s1)-c1ncccc1OCC2)c1ccccc1Cl | –
20 | – | > 1 | – | – | 0.052 | CN(C(=O)c1cc2c(s1)-c1ccccc1OCC2)c1ccc(F)cc1F | –
21 | – | – | – | – | > 2 | CC(C)N(C)C(=O)c1cc2c(s1)-c1ccccc1OCC2 | –
22 | – | 0.02 | – | – | 0.0012 | O=c1[nH]nc(-c2cc3c(s2)-c2ccccc2OCC3)n1-c1ccccc1Cl | –
23 | > 200 | 0.017 | 24 | 7 | < 0.0005 | NC(=O)c1ccc2c(c1)OCCc1cc(-c3ncnn3-c3ccc(F)cc3F)sc1-2 | IC50 [7]: 0.023 µM; Papp A→B [8]: 13 ×10⁻⁶ cm/s; IC50 [9]: 0.18 µM; fAUC [10]: 0.26 µM·h; fAUC [11]: 0.53 µM·h; solubility thermodynamic [12]: < 1 µg/mL; clearance [5]: 38 mL/min/kg; fAUC [13]: 0.54 µM·h
